Laboratory results reported in the supplement of paper PMC5908809.

Columns and labels:
[1] = system: normal NK cells expanded with K562-aAPC; assay: percent inhibition of viability; higher = more inhibition; conditions: 72 h, IL-2 2.5 ng/mL
Procedure: (§1)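 Drug sensitivity and resistance testing on K562-aAPC-expanded normal NK cells: 5 concentrations (10-fold steps over a 10,000-fold range), 72 h at 37 °C, viability by CellTiter-Glo normalised to DMSO and benzethonium chloride controls; DSS from the fitted curve.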

DERL-7 (IL-2 2.5 ng/mL) [2] = assay: as above; conditions: 72 h
IMC-1 (IL-2 20 ng/mL) [3] = assay: as above; conditions: 72 h
KAI3 (IL-2 2.5 ng/mL) [4] = assay: as above; conditions: 72 h
KHYG-1 (IL-2 2.5 ng/mL) [5] = assay: as above; conditions: 72 h
NK-92 (IL-2 2.5 ng/mL) [6] = assay: as above; conditions: 72 h
NK-YS (IL-2 2.5 ng/mL) [7] = assay: as above; conditions: 72 h
NKL (IL-2 2.5 ng/mL) [8] = assay: as above; conditions: 72 h
SNK-6 (IL-2 2.5 ng/mL) [9] = assay: as above; conditions: 72 h
YT (IL-2 2.5 ng/mL) [10] = assay: as above; conditions: 72 h
[11] = system: normal primary NK cells, pool 1 (3 donors) (IL-2 2.5 ng/mL); assay: as above; conditions: 72 h
[12] = system: normal primary NK cells, pool 1 (3 donors), resting (IL-2 0 ng/mL); assay: as above; conditions: 72 h
[13] = system: normal primary NK cells, pool 2 (3 donors) (IL-2 2.5 ng/mL); assay: as above; conditions: 72 h
[14] = system: normal primary NK cells, pool 3 (3 donors) (IL-2 2.5 ng/mL); assay: as above; conditions: 72 h
[15] = system: normal NK cells expanded with K562-aAPC; assay: drug sensitivity score (DSS) (DSS units); higher = more sensitive; extreme values may be limits of the assay; conditions: 72 h; IL-2 2.5 ng/mL
Procedure: as §1

DERL-7 (IL-2 2.5 ng/mL) [16] = assay: as above; conditions: 72 h
IMC-1 (IL-2 20 ng/mL) [17] = assay: as above; conditions: 72 h
KAI3 (IL-2 2.5 ng/mL) [18] = assay: as above; conditions: 72 h
KHYG-1 (IL-2 2.5 ng/mL) [19] = assay: as above; conditions: 72 h
NK-92 (IL-2 2.5 ng/mL) [20] = assay: as above; conditions: 72 h
NK-YS (IL-2 2.5 ng/mL) [21] = assay: as above; conditions: 72 h
NKL (IL-2 2.5 ng/mL) [22] = assay: as above; conditions: 72 h
SNK-6 (IL-2 2.5 ng/mL) [23] = assay: as above; conditions: 72 h
YT (IL-2 2.5 ng/mL) [24] = assay: as above; conditions: 72 h
[25] = system: normal primary NK cells, pool 1 (3 donors) (IL-2 2.5 ng/mL); assay: as above; conditions: 72 h
[26] = system: normal primary NK cells, pool 1 (3 donors), resting (IL-2 0 ng/mL); assay: as above; conditions: 72 h
[27] = system: normal primary NK cells, pool 2 (3 donors) (IL-2 2.5 ng/mL); assay: as above; conditions: 72 h
[28] = system: normal primary NK cells, pool 3 (3 donors) (IL-2 2.5 ng/mL); assay: as above; conditions: 72 h

Cn1ncnc1[C@H]1c2n[nH]c(=O)c3cc(F)cc(c23)N[C@@H]1c1ccc(F)cc1 [Talazoparib] (max concentration tested 1000 nM)
percent inhibition of viability [%]
Conditions | 0.1 nM | 1 nM | 10 nM | 100 nM | 1000 nM
DERL-7 (IL-2 2.5 ng/mL) [2] | 4.61 | 7.22 | 13.7 | 21.3 | 37.8
IMC-1 (IL-2 20 ng/mL) [3] | -4.58 | -1.47 | 11.2 | 18.6 | 78.1
KAI3 (IL-2 2.5 ng/mL) [4] | 3.2 | 10.3 | 25.1 | 48.3 | 74.7
KHYG-1 (IL-2 2.5 ng/mL) [5] | 0.2 | -0.57 | 14.9 | 31.4 | 71.2
NK-92 (IL-2 2.5 ng/mL) [6] | 15.4 | 8.78 | 27.8 | 36.7 | 87.8
NK-YS (IL-2 2.5 ng/mL) [7] | -2.27 | -0.36 | 27.9 | 81.3 | 96.2
NKL (IL-2 2.5 ng/mL) [8] | -2.21 | 28.1 | 72 | 84.1 | 88.6
SNK-6 (IL-2 2.5 ng/mL) [9] | 1.83 | 6.37 | 16.4 | 33.1 | 90.8
YT (IL-2 2.5 ng/mL) [10] | -2.25 | 0.5 | 0.86 | -5.82 | -1.36
[1] | 2.07 | 3.56 | 9.75 | 17.4 | 45.1
[11] | 7.55 | -5.65 | 4.49 | -2.17 | -1.39
[12] | 10.7 | -5.43 | -1.52 | -18.5 | 4.03
[13] | -10.4 | 6.14 | 1.12 | 1.32 | 21.5
[14] | -7.78 | -0.35 | 2.46 | 5.72 | 21.3

Conditions | drug sensitivity score
DERL-7 (IL-2 2.5 ng/mL) [16] | 5.22
IMC-1 (IL-2 20 ng/mL) [17] | 7.06
KAI3 (IL-2 2.5 ng/mL) [18] | 12.7
KHYG-1 (IL-2 2.5 ng/mL) [19] | 7.93
NK-92 (IL-2 2.5 ng/mL) [20] | 12
NK-YS (IL-2 2.5 ng/mL) [21] | 18.4
NKL (IL-2 2.5 ng/mL) [22] | 27.7
SNK-6 (IL-2 2.5 ng/mL) [23] | 8.8
YT (IL-2 2.5 ng/mL) [24] | 0
[15] | 4.21
[25] | 0
[26] | 0
[27] | 0.86
[28] | 1.31
